The source of these data is ChEMBL document CHEMBL5465560, “Selectivity Literature for EUbOPEN Chemogenomic Library” (2024).

Assay [1] addresses MAP/microtubule affinity-regulating kinase 3 (Homo sapiens) (UniProt P27448). Put plainly: Selectivity interaction (Kinase panel (KiNativ target engagement assay in Jurkat cells)) EUB0001635a MARK3. It counts as cell-based. As to conditions: at 1 µM.
Assay [2] has as its target Cyclin-dependent kinase 2 (Homo sapiens, UniProt P24941). Put plainly: Selectivity interaction (KinomeScan (DiscoverX)) EUB0000607a CDK2. To be noted: at 10 µM.
The target of assay [3] is Receptor tyrosine-protein kinase erbB-4 (Homo sapiens, UniProt Q15303). The assay can be described thus: Selectivity interaction (KinomeScan (DiscoverX)) EUB0000607a ERBB4. To be noted: at 10 µM.
Assay [4] has as its target Activin receptor type-2A (Homo sapiens) (UniProt P27037). As to conditions: at 10 µM.
For assay [5], the target named is Proto-oncogene tyrosine-protein kinase Src (Homo sapiens, UniProt P12931). Put plainly: Selectivity interaction (Kinase panel (DSF assay)) EUB0001558a SRC.
The target in assay [6] is T1, Serine/threonine-protein kinase TAO2 (Homo sapiens) (UniProt Q9UL54).
T1 sequence (whole entry): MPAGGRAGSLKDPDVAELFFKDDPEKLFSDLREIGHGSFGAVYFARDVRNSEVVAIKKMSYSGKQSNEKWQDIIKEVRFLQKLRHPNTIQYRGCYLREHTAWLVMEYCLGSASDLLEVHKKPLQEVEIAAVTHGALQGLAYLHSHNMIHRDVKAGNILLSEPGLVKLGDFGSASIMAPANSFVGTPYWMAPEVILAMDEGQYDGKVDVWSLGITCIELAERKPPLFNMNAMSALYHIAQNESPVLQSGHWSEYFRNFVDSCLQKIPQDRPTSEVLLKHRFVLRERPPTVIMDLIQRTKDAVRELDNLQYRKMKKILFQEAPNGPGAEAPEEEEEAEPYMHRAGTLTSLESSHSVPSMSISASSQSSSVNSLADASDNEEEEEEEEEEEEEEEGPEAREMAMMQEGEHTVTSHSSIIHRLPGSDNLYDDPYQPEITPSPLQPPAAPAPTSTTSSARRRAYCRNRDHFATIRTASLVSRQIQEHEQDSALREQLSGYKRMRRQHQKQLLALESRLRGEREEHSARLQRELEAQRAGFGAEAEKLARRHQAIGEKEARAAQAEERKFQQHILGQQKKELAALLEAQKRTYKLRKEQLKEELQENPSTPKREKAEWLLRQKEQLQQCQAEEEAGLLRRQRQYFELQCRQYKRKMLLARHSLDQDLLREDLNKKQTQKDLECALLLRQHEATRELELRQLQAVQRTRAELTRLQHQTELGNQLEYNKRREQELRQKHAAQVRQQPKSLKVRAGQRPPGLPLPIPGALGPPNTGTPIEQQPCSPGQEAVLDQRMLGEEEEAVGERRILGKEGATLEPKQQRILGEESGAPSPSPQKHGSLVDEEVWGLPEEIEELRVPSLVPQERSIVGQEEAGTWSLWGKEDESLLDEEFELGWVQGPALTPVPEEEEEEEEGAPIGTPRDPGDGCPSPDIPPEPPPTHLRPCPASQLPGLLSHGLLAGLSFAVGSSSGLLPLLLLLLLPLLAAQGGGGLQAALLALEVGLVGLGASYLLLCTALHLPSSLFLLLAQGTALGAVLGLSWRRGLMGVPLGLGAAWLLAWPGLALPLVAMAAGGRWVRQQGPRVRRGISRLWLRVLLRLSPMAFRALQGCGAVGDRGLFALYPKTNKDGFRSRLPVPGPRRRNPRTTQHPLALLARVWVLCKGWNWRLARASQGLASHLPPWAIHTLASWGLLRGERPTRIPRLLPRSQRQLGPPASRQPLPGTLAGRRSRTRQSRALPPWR
The assay can be described thus: Selectivity interaction (ActivX KiNativ screen (ex vivo kinase selectivity in human PBMCs)) EUB0001619a TAOK2. It is filed as cell-based. To be noted: PBMC, at 1 µM.

The target of assay [7] is Dual specificity protein kinase CLK1 (Homo sapiens, UniProt P49759). Put plainly: Selectivity interaction (KinomeScan (DiscoverX)) EUB0001619a CLK1. As to conditions: at 1 µM.
The target of assay [8] is Muscarinic acetylcholine receptor M2 (Homo sapiens, UniProt P08172). Put plainly: Selectivity interaction (Muscarinic M2 Calcium flux assay, agonist and antagonist mode ) EUB0000877a CHRM2.
For assay [9], the target named is Ephrin type-A receptor 2 (Homo sapiens) (UniProt P29317). The assay can be described thus: Selectivity interaction (ActivX KiNativ screen (kinase selectivity in THP-1 cell lysates)) EUB0000639a EPHA2. It is filed as subcellular. As to conditions: lysate.
Assay [10] deals with T2, Mitogen-activated protein kinase 13 (Homo sapiens) (UniProt O15264).
T2 sequence (whole entry): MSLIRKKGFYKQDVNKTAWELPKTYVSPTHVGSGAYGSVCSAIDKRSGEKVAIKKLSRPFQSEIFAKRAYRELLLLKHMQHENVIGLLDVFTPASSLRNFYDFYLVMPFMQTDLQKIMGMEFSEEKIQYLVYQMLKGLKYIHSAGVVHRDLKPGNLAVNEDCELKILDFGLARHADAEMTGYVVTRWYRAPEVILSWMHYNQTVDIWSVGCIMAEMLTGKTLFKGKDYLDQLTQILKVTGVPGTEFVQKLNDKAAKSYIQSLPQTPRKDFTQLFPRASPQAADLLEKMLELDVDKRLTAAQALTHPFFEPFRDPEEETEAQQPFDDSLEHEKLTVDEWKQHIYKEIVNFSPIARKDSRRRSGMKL
Put plainly: Selectivity interaction (ActivX KiNativ screen (kinase selectivity in THP-1 cell lysates)) EUB0000639a MAPK13. It is filed as subcellular. To be noted: lysate.

Assay [11] can be described thus: Selectivity interaction (KinomeScan (DiscoverX)) EUB0000595a PKNB. To be noted: at 10 µM.
For assay [12], the target named is T3, Testis-specific serine/threonine-protein kinase 1 (Homo sapiens) (UniProt Q9BXA7).
T3 sequence (whole entry): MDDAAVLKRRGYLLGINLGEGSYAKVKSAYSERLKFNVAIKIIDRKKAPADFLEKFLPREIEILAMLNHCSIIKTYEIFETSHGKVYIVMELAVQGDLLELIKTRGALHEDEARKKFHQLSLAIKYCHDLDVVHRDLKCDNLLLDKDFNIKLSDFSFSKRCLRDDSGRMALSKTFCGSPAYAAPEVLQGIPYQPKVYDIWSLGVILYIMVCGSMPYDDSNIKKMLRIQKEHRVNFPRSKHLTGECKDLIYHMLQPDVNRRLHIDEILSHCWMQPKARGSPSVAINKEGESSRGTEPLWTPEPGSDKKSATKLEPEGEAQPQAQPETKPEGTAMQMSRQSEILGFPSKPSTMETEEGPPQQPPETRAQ
As to conditions: at 10 µM.

Some results are limits rather than exact numbers.

Sequence of Ephrin type-A receptor 2 (Homo sapiens) (P29317 whole entry): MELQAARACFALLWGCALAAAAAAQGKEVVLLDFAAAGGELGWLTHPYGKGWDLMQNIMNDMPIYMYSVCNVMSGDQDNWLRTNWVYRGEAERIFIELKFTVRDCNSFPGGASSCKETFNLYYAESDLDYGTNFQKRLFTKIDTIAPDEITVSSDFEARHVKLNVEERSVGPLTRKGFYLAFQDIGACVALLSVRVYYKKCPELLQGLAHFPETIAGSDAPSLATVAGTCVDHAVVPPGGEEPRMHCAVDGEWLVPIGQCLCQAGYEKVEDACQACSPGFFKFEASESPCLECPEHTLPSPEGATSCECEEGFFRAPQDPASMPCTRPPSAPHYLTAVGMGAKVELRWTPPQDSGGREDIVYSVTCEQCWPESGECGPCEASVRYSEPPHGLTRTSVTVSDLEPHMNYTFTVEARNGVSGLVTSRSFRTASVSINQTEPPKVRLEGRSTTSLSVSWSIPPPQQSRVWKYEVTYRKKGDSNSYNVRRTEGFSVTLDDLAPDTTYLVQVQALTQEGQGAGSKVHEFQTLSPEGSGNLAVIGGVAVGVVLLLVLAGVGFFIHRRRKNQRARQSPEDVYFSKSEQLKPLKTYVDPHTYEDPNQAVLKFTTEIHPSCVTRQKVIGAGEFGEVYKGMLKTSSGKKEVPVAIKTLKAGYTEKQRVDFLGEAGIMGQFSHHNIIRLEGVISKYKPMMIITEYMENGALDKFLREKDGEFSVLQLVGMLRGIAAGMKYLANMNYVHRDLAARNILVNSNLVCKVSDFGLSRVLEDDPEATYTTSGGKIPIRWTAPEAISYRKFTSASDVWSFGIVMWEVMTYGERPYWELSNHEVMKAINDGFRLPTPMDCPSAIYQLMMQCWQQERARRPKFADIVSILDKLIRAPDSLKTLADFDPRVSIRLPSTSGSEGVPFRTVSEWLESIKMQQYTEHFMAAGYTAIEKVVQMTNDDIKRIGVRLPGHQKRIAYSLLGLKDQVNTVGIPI
Sequence of MAP/microtubule affinity-regulating kinase 3 (Homo sapiens) (P27448 whole entry, looked up): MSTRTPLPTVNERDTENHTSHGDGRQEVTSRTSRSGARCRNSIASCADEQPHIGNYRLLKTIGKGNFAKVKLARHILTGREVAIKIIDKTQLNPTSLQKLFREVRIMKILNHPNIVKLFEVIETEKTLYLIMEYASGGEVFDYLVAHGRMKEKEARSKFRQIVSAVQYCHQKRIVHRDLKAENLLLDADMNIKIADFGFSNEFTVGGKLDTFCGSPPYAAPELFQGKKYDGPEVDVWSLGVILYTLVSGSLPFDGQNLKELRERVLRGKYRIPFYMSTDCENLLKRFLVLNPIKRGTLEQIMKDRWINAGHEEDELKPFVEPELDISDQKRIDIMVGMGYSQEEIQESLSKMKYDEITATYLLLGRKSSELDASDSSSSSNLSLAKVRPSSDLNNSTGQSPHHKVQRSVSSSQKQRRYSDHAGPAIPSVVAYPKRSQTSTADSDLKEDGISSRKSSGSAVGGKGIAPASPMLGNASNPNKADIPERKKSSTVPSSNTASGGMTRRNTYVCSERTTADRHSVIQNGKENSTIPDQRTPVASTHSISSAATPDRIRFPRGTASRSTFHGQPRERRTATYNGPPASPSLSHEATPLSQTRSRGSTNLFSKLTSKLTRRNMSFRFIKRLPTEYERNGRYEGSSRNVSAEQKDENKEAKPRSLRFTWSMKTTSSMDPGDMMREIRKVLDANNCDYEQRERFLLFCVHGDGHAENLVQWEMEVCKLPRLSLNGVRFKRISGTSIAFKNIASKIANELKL
Sequence of Activin receptor type-2A (Homo sapiens) (P27037 whole entry): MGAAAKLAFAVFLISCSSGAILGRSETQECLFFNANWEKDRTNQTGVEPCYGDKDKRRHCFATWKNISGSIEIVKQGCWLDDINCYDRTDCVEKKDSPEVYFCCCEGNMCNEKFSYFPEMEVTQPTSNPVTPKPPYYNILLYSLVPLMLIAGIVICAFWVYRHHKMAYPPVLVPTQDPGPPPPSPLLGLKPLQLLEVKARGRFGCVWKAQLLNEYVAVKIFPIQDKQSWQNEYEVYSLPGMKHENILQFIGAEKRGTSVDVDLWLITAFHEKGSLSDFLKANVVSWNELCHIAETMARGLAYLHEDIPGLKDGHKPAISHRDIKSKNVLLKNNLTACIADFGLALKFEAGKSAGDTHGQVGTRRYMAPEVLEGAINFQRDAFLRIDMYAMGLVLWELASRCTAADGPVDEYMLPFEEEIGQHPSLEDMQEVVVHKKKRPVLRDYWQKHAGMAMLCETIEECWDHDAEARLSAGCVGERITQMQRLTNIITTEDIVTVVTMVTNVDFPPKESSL
Sequence of Receptor tyrosine-protein kinase erbB-4 (Q15303 whole entry): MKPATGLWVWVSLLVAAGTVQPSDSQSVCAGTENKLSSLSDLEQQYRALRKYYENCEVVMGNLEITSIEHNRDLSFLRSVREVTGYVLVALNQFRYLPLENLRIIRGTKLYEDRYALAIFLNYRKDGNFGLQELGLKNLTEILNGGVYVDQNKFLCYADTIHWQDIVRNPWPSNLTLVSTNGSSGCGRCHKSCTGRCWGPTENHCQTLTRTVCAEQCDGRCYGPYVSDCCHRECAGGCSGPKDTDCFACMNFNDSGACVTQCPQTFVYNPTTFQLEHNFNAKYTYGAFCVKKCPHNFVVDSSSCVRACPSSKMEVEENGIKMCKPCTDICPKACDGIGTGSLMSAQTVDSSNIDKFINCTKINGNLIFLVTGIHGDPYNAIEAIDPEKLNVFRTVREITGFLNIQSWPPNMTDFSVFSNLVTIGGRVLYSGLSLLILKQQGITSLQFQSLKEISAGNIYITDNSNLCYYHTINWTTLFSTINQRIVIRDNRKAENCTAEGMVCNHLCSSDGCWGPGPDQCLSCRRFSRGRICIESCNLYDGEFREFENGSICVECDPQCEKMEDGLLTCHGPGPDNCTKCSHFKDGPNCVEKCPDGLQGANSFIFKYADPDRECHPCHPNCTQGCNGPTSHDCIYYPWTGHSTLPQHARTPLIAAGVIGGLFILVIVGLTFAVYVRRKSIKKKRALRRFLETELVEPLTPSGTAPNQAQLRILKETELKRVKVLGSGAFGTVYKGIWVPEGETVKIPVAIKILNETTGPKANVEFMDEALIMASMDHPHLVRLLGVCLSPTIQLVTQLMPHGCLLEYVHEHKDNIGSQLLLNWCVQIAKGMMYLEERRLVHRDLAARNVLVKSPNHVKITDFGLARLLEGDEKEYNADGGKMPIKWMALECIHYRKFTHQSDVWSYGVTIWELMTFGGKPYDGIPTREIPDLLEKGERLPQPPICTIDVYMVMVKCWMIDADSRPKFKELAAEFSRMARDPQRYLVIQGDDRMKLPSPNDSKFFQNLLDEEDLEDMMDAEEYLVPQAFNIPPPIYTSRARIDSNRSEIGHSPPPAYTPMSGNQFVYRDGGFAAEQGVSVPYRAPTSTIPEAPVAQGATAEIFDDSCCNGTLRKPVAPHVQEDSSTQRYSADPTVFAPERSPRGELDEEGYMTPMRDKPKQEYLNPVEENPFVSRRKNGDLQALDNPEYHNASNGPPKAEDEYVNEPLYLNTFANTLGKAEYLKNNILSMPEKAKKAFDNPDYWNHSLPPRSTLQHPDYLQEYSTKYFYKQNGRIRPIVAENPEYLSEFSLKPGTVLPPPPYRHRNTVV
Sequence of Dual specificity protein kinase CLK1 (P49759 whole entry, looked up): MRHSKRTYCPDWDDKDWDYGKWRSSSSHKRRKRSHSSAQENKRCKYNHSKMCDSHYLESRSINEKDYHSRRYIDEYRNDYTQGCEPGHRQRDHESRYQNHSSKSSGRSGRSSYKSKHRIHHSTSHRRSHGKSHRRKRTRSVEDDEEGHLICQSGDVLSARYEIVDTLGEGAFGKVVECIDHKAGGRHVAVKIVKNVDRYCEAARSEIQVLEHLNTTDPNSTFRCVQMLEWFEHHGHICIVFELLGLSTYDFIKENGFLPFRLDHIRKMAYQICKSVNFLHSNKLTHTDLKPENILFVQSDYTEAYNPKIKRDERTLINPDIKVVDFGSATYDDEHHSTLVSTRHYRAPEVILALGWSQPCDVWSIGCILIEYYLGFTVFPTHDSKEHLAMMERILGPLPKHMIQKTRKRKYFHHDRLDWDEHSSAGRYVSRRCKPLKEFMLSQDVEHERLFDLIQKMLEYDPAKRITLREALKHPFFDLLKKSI
Sequence of Muscarinic acetylcholine receptor M2 (P08172 whole entry): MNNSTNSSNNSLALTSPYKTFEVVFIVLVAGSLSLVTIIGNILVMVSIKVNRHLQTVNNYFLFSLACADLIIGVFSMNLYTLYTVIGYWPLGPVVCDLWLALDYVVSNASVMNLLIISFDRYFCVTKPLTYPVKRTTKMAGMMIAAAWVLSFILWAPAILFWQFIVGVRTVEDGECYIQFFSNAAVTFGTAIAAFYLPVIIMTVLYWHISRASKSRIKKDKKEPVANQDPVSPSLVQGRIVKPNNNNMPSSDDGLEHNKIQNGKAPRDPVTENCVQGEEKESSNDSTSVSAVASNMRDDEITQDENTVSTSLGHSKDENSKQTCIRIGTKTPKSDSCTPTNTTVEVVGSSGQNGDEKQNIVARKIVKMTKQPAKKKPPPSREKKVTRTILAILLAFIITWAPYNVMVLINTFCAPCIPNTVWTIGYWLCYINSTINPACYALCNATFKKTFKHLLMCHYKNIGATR
Sequence of Proto-oncogene tyrosine-protein kinase Src (P12931 2-536 limits assumed): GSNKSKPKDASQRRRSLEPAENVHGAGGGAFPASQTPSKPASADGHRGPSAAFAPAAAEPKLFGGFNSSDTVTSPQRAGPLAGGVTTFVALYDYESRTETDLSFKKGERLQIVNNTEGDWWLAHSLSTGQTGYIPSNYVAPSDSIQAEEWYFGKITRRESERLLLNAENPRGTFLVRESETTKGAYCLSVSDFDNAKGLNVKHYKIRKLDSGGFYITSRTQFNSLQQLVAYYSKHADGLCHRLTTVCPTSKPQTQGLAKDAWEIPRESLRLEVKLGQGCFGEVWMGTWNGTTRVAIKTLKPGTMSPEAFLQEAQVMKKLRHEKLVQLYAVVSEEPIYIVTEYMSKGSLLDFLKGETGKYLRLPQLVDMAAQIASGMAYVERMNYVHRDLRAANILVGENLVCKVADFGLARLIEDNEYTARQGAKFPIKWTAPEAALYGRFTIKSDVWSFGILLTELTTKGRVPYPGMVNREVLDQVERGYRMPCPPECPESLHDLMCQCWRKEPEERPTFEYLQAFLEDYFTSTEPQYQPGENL

As for `C=CC(=O)Nc1ccc(C(=O)Nc2[nH]nc3c2CN(C(=O)N[C@H](CN(C)C)c2ccccc2)C3(C)C)cc1`, the % of engagement in [1] (Selectivity number of off-targets 0.0, Selectivity number of targets 233.0, Source Knowledge https://www.sciencedirect.com/science/article/pii/S2451945619300674?via%3Dihub) was determined as 16.4%; in assay [1] it was 19.1%.
Take `CNC(=O)Nc1ccc(-c2nc(N3CC4CCC(C3)O4)c3cnn(C4CCC5(CC4)OCCO5)c3n2)cc1`: the % of control was 92% in assay [2] and 100% in assay [3].
`Cc1cc([C@@H](C)Nc2ccccc2C(=O)O)c2nc(N3CCOCC3)cc(=O)n2c1` [AZD-6482] registered a % of control in [4] of 94%.
The molecule `CC(C)(O)[C@H](F)CN1Cc2cc(NC(=O)c3cnn4cccnc34)c(N3CCOCC3)cc2C1=O` gave a dTM in assay [5] of 2 K.
`N#Cc1cccc(-c2c[nH]c3ncnc(N4CCOCC4)c23)c1`: in [6], the % of inhibition was -3%. The % of control in [7] worked out at 63%.
With `CCC(=O)N1CC[C@H](Nc2ncnc3c2CN(c2cnc(OC)c(C(F)(F)F)c2)CC3)C1` [LENIOLISIB], the IC50 in [8] is greater than 30 µM.
Turning to `CC[C@@H]1[C@H](F)C(=O)N[C@@H]1COc1nccc2cc(C(N)=O)c(OC)cc12` [ZIMLOVISERTIB], the % of inhibition is -12.3% in assay [9] (at 0.01 µM); -11.2% in assay [9] (at 0.04 µM); 2.2% in assay [9] (at 0.2 µM); -12.7% in assay [9] (at 1 µM); 14.3% in assay [9] (at 5 µM); -4.4% in [10] (at 0.01 µM). For the same molecule, the % of inhibition in assay [10] (at 0.04 µM) was 6%; in assay [10] (at 0.2 µM) it was -3.6%; in assay [10] (at 1 µM) it was 7.4%; in assay [10] (at 5 µM), 20.3%.
For `COCC(=O)NC/C=C/c1ccc2ncnc(Nc3ccc(Oc4ccc(C)nc4)c(C)c3)c2c1` [CP-724714], the % of control worked out at 23% in assay [11] and 100% in [12].
